Patent US8758816B2, “Compositions comprising azelastine and methods of use thereof” (priority 2004, dated 2014)
Values joined by “and” are separate entries in the source; they are usually repeats but may differ in a detail not shown here. Identical values can stand only once. Counter-ions that a name gives are not always drawn.

System: patients with seasonal allergic rhinitis (SAR)
Assay: MP 428 study: adverse events, Safety Population
Assay type: in vivo, human
Method: A two-week, randomized, double-blind study, which evaluated the effects of the co-administration of ASTELIN® (azelastine hydrochloride (HCl)) and FLONASE® (fluticasone propionate) compared to either product alone in patients with seasonal allergic rhinitis (SAR) was conducted during the 2006 Texas mountain cedar season. After a 5-day placebo lead-in period, 151 patients with moderate-to-severe allergic rhinitis symptoms were randomized to either: (1) (49 total patients) ASTELIN® (azelastine hydrochloride (HCl)) plus placebo saline nasal spray 2 sprays per nostril, 15 minutes apart, twice daily (AM & PM); (2) (50 total patients) FLONASE® (fluticasone propionate) plus placebo saline nasal spray, 2 sprays per nostril, 15 minutes apart, once daily (AM) and two sessions of placebo saline nasal spray, 2 sprays per nostril, 15 minutes apart (PM); or (3) (52 total patients) the co-administration of ASTELIN® (azelastine hydrochloride (HCl)) 2 sprays per nostril plus FLONASE® (fluticasone propionate) 2 sprays per nostril (AM), 15 minutes apart, and ASTELIN® (azelastine hydrochloride (HCl)) 2 sprays per nostril plus placebo saline nasal spray, 15 minutes apart, (PM) for a 2-week double-blind treatment period.
The most common adverse events (AEs) were bitter taste (8.2% in ASTELIN® (azelastine hydrochloride (HCl)) group, 2.0% in FLONASE® (fluticasone propionate) group, 13.5% in co-administration group) and headache (4.1% in ASTELIN® (azelastine hydrochloride (HCl)) group, 4.0% in FLONASE® (fluticasone propionate) group, 5.8% in co-administration group). No other AE was reported by more than one patient in any treatment group. There were no discontinuations due to AEs.

[1] = Total (possibly or probably related), Safety Population

SMILES: CN1CCCC(n2nc(Cc3ccc(Cl)cc3)c3ccccc3c2=O)CC1 (racemic) [Azelastine, (±)-1-(2H)-phthalazinone, 4-[(4-chlorophenyl)methyl]-2-(hexahydro-1-methyl-1H-azepin-4-yl)-, mono-hydrochloride]
- Treatment-Emergent AE: NECK PAIN (Total): 1 (2.0) No. of Patients (%)
- Treatment-Emergent AE: NERVOUS SYSTEM DISORDERS, Any Preferred Term (Total): 2 (4.1) No. of Patients (%)
- Treatment-Emergent AE: PHARYNGOLARYNGEAL PAIN (Total): 1 (2.0) No. of Patients (%)
- Treatment-Emergent AE: RESPIRATORY, THORACIC AND MEDIASTINAL DISORDERS, Any Preferred Term (Total): 1 (2.0) No. of Patients (%)
- Treatment-Emergent AE: STOMACH DISCOMFORT (Total): 0 (0.0) No. of Patients (%)
- Treatment-Related Adverse Events: Any Adverse Event [1]: 4 (8.2) No. of Patients (%)
- Treatment-Related Adverse Events: DRY MOUTH [1]: 0 (0.0) No. of Patients (%)
- Treatment-Related Adverse Events: DYSGEUSIA [1]: 4 (8.2) No. of Patients (%)
- Treatment-Related Adverse Events: EPISTAXIS [1]: 0 (0.0) No. of Patients (%)
- Treatment-Related Adverse Events: GASTROINTESTINAL DISORDERS, Any Preferred Term [1]: 4 (8.2) No. of Patients (%)
- Treatment-Related Adverse Events: HEADACHE [1]: 0 (0.0) No. of Patients (%)
- Treatment-Related Adverse Events: NASAL DISCOMFORT [1]: 0 (0.0) No. of Patients (%)
- Treatment-Related Adverse Events: NERVOUS SYSTEM DISORDERS, Any Preferred Term [1]: 0 (0.0) No. of Patients (%)
- Treatment-Related Adverse Events: RESPIRATORY, THORACIC AND MEDIASTINAL DISORDERS, Any Preferred Term [1]: 0 (0.0) No. of Patients (%)
- Treatment-Related Adverse Events: STOMACH DISCOMFORT [1]: 0 (0.0) No. of Patients (%)
- Treatment-Emergent AE: DRY MOUTH (max severity Mild): 0 (0.0) No. of Patients (%)
- Treatment-Emergent AE: DYSGEUSIA (max severity Mild): 1 (2.0) No. of Patients (%)
- Treatment-Emergent AE: EAR AND LABYRINTH DISORDERS, Any Preferred Term (max severity Mild): 0 (0.0) No. of Patients (%)
- Treatment-Emergent AE: EAR PAIN (max severity Mild): 0 (0.0) No. of Patients (%)
- Treatment-Emergent AE: EPISTAXIS (max severity Mild): 0 (0.0) No. of Patients (%)
- Treatment-Emergent AE: GASTROINTESTINAL DISORDERS, Any Preferred Term (max severity Mild): 1 (2.0) No. of Patients (%)
- Treatment-Emergent AE: HEADACHE (max severity Mild): 1 (2.0) No. of Patients (%)
- Treatment-Emergent AE: MUSCULOSKELETAL AND CONNECTIVE TISSUE DISORDERS, Any Preferred Term (max severity Mild): 1 (2.0) No. of Patients (%)
- Treatment-Emergent AE: MYALGIA (max severity Mild): 0 (0.0) No. of Patients (%)
- Treatment-Emergent AE: NASAL DISCOMFORT (max severity Mild): 0 (0.0) No. of Patients (%)
- Treatment-Emergent AE: NECK PAIN (max severity Mild): 1 (2.0) No. of Patients (%)
- Treatment-Emergent AE: NERVOUS SYSTEM DISORDERS, Any Preferred Term (max severity Mild): 1 (2.0) No. of Patients (%)
- Treatment-Emergent AE: PHARYNGOLARYNGEAL PAIN (max severity Mild): 0 (0.0) No. of Patients (%)
- Treatment-Emergent AE: RESPIRATORY, THORACIC AND MEDIASTINAL DISORDERS, Any Preferred Term (max severity Mild): 0 (0.0) No. of Patients (%)
- Treatment-Emergent AE: STOMACH DISCOMFORT (max severity Mild): 0 (0.0) No. of Patients (%)
- Treatment-Emergent AE: Any Adverse Event (max severity Mild, mono-hydrochloride): 3 (6.1) No. of Patients (%) and 3 (0.1) No. of Patients (%)
- Treatment-Emergent AE: Any Adverse Event (max severity Moderate): 2 (4.1) No. of Patients (%)
- Treatment-Emergent AE: DRY MOUTH (max severity Moderate): 0 (0.0) No. of Patients (%)
- Treatment-Emergent AE: DYSGEUSIA (max severity Moderate): 0 (0.0) No. of Patients (%)
- Treatment-Emergent AE: EAR AND LABYRINTH DISORDERS, Any Preferred Term (max severity Moderate): 1 (2.0) No. of Patients (%)
- Treatment-Emergent AE: EAR PAIN (max severity Moderate): 1 (2.0) No. of Patients (%)
- Treatment-Emergent AE: EPISTAXIS (max severity Moderate): 0 (0.0) No. of Patients (%)
- Treatment-Emergent AE: GASTROINTESTINAL DISORDERS, Any Preferred Term (max severity Moderate): 0 (0.0) No. of Patients (%)
- Treatment-Emergent AE: HEADACHE (max severity Moderate): 1 (2.0) No. of Patients (%)
- Treatment-Emergent AE: MUSCULOSKELETAL AND CONNECTIVE TISSUE DISORDERS, Any Preferred Term (max severity Moderate): 0 (0.0) No. of Patients (%)
- Treatment-Emergent AE: MYALGIA (max severity Moderate): 0 (0.0) No. of Patients (%)
- Treatment-Emergent AE: NASAL DISCOMFORT (max severity Moderate): 0 (0.0) No. of Patients (%)
- Treatment-Emergent AE: NECK PAIN (max severity Moderate): 0 (0.0) No. of Patients (%)
- Treatment-Emergent AE: NERVOUS SYSTEM DISORDERS, Any Preferred Term (max severity Moderate): 1 (2.0) No. of Patients (%)
- Treatment-Emergent AE: PHARYNGOLARYNGEAL PAIN (max severity Moderate): 1 (2.0) No. of Patients (%)
- Treatment-Emergent AE: RESPIRATORY, THORACIC AND MEDIASTINAL DISORDERS, Any Preferred Term (max severity Moderate): 1 (2.0) No. of Patients (%)
- Treatment-Emergent AE: STOMACH DISCOMFORT (max severity Moderate): 0 (0.0) No. of Patients (%)
- Treatment-Emergent AE: Any Adverse Event (max severity Severe): 3 (6.1) No. of Patients (%)
- Treatment-Emergent AE: DRY MOUTH (max severity Severe): 0 (0.0) No. of Patients (%)
- Treatment-Emergent AE: DYSGEUSIA (max severity Severe): 3 (6.1) No. of Patients (%)
- Treatment-Emergent AE: EAR AND LABYRINTH DISORDERS, Any Preferred Term (max severity Severe): 0 (0.0) No. of Patients (%)
- Treatment-Emergent AE: EAR PAIN (max severity Severe): 0 (0.0) No. of Patients (%)
- Treatment-Emergent AE: EPISTAXIS (max severity Severe): 0 (0.0) No. of Patients (%)
- Treatment-Emergent AE: GASTROINTESTINAL DISORDERS, Any Preferred Term (max severity Severe): 3 (6.1) No. of Patients (%)
- Treatment-Emergent AE: HEADACHE (max severity Severe): 0 (0.0) No. of Patients (%)
- Treatment-Emergent AE: MUSCULOSKELETAL AND CONNECTIVE TISSUE DISORDERS, Any Preferred Term (max severity Severe): 0 (0.0) No. of Patients (%)
- Treatment-Emergent AE: MYALGIA (max severity Severe): 0 (0.0) No. of Patients (%)
- Treatment-Emergent AE: NASAL DISCOMFORT (max severity Severe): 0 (0.0) No. of Patients (%)
- Treatment-Emergent AE: NECK PAIN (max severity Severe): 0 (0.0) No. of Patients (%)
- Treatment-Emergent AE: NERVOUS SYSTEM DISORDERS, Any Preferred Term (max severity Severe): 0 (0.0) No. of Patients (%)
- Treatment-Emergent AE: PHARYNGOLARYNGEAL PAIN (max severity Severe): 0 (0.0) No. of Patients (%)
- Treatment-Emergent AE: RESPIRATORY, THORACIC AND MEDIASTINAL DISORDERS, Any Preferred Term (max severity Severe): 0 (0.0) No. of Patients (%)
- Treatment-Emergent AE: STOMACH DISCOMFORT (max severity Severe): 0 (0.0) No. of Patients (%)
- adverse event: bitter taste (share of treatment group): 8.2%
- adverse event: headache (share of treatment group): 4.1%
